Measurements published in the supplement of paper PMC8671470.

Key:
Conditions in all cases: 72 h
[1] = test system: HL-60; test: area under dose-response curve (viability, 1 nM-10 uM) (fraction (0-1)); higher = more sensitive
Summary of the method: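 For each screen, HL-60 cells in RPMI 1640 with 10% FBS carried either DMSO or 100 nM of one of three metabolic inhibitors while the full library was applied at five tenfold concentrations, 1–10,000 nM, in duplicate. Plates were 384-well and were kept 72 h at 37 °C, 5% CO2. Viability, measured by CellTiter-Glo, was normalised to wells with DMSO and with 10 μM proteasome inhibitor. Where area under the curve appears, it was fitted by four-parameter log-logistic models in drc and PharmacoGx.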

[2] = test system: MOLM-13
Summary of the method: (§1)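 Each of fifteen myeloid leukaemia cell lines was seeded in RPMI 1640 at a density titrated to its linear growth range. The cells were incubated for 72 h at 37 °C and 5% CO2 with compounds at five tenfold doses from 1 to 10,000 nM, in duplicate. After ATP luminescence was normalised to vehicle and to a positive control at 10 µM, four-parameter log-logistic curves were fitted. These curves gave the IC50.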

[3] = test system: HL-60
Summary of the method: as §1

[4] = test system: MV4-11
Summary of the method: as §1

[5] = test system: Mono-Mac-6
Summary of the method: as §1

[6] = test system: KU-812
Summary of the method: as §1

[7] = test system: KCL-22
Summary of the method: as §1

[8] = test system: BV-173
Summary of the method: as §1

[9] = test system: KG-1
Summary of the method: as §1

[10] = test system: ML-2
Summary of the method: as §1

[11] = test system: THP-1
Summary of the method: as §1

[12] = test system: NOMO-1
Summary of the method: as §1

[13] = test system: HEL
Summary of the method: as §1

[14] = test system: K-562
Summary of the method: as §1

[15] = test system: SHI-1
Summary of the method: as §1

[16] = test system: LAMA-84
Summary of the method: as §1

[17] = test system: MOLM-13; test: cell viability (% survival relative to DMSO control, bortezomib = 0%); higher = less cytotoxic
Summary of the method: (§2)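 Percent survival figures are means of duplicate wells. They were obtained by CellTiter-Glo luminescence after 10 AML and 5 CML cell lines spent 72 h at 37 °C with 5% CO2 in 384-well plates with compounds at 1, 10, 100, 1000 or 10000 nM. Vehicle was set to 100% and a 10 µM positive control to 0%.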

[18] = test system: HL-60; test: as above
Summary of the method: as §2

[19] = test system: MV4-11; test: as above
Summary of the method: as §2

[20] = test system: Mono-Mac-6; test: as above
Summary of the method: as §2

[21] = test system: KU-812; test: as above
Summary of the method: as §2

[22] = test system: KCL-22; test: as above
Summary of the method: as §2

[23] = test system: BV-173; test: as above
Summary of the method: as §2

[24] = test system: KG-1; test: as above
Summary of the method: as §2

[25] = test system: ML-2; test: as above
Summary of the method: as §2

[26] = test system: THP-1; test: as above
Summary of the method: as §2

[27] = test system: NOMO-1; test: as above
Summary of the method: as §2

[28] = test system: HEL; test: as above
Summary of the method: as §2

[29] = test system: SHI-1; test: as above
Summary of the method: as §2

[30] = test system: LAMA-84; test: as above
Summary of the method: as §2

## N#CC(C#N)=NNc1ccc(OC(F)(F)F)cc1 [FCCP]
[1]; co-treatment: AZD3965 100 nM
  area under dose-response curve: 0.104
[1]; co-treatment: DMSO vehicle
  area under dose-response curve: 0.106
[1]; co-treatment: GSK2194069 100 nM
  area under dose-response curve: 0.0946
[1]; co-treatment: pictilisib 100 nM
  area under dose-response curve: 0.107
[2]
  IC50 (cell viability): 2110 nM
[3]
  IC50 (cell viability): 2660 nM
[4]
  IC50 (cell viability): 2440 nM
[5]
  IC50 (cell viability): 2380 nM
[6]
  IC50 (cell viability): 1390 nM
[7]
  IC50 (cell viability): 1820 nM
[8]
  IC50 (cell viability): 2050 nM
[9]
  IC50 (cell viability): 2340 nM
[10]
  IC50 (cell viability): 2090 nM
[11]
  IC50 (cell viability): 3770 nM
[12]
  IC50 (cell viability): 3010 nM
[13]
  IC50 (cell viability): 1960 nM
[14]
  IC50 (cell viability): 1730 nM
[15]
  IC50 (cell viability): 4020 nM
[16]
  IC50 (cell viability): 2010 nM
[17]; 1 nM
  cell viability: 121%
[17]; 10 nM
  cell viability: 92.6%
[17]; 100 nM
  cell viability: 99.3%
[17]; 1000 nM
  cell viability: 82.7%
[17]; 10000 nM
  cell viability: 0.459%
[18]; 1 nM
  cell viability: 88.2%
[18]; 10 nM
  cell viability: 92.4%
[18]; 100 nM
  cell viability: 109%
[18]; 1000 nM
  cell viability: 88.5%
[18]; 10000 nM
  cell viability: 0.501%
[19]; 1 nM
  cell viability: 104%
[19]; 10 nM
  cell viability: 101%
[19]; 100 nM
  cell viability: 98.9%
[19]; 1000 nM
  cell viability: 88.5%
[19]; 10000 nM
  cell viability: -1.01%
[20]; 1 nM
  cell viability: 100%
[20]; 10 nM
  cell viability: 92%
[20]; 100 nM
  cell viability: 96.1%
[20]; 1000 nM
  cell viability: 82.8%
[20]; 10000 nM
  cell viability: 3.03%
[21]; 1 nM
  cell viability: 108%
[21]; 10 nM
  cell viability: 98%
[21]; 100 nM
  cell viability: 92.4%
[21]; 1000 nM
  cell viability: 65.7%
[21]; 10000 nM
  cell viability: 0.082%
[22]; 1 nM
  cell viability: 110%
[22]; 10 nM
  cell viability: 83.6%
[22]; 100 nM
  cell viability: 85.8%
[22]; 1000 nM
  cell viability: 68.3%
[22]; 10000 nM
  cell viability: 4.51%
[23]; 1 nM
  cell viability: 119%
[23]; 10 nM
  cell viability: 94.9%
[23]; 100 nM
  cell viability: 96.7%
[23]; 1000 nM
  cell viability: 82%
[23]; 10000 nM
  cell viability: -0.482%
[24]; 1 nM
  cell viability: 101%
[24]; 10 nM
  cell viability: 101%
[24]; 100 nM
  cell viability: 94.7%
[24]; 1000 nM
  cell viability: 80.8%
[24]; 10000 nM
  cell viability: 7.07%
[25]; 1 nM
  cell viability: 104%
[25]; 10 nM
  cell viability: 96.5%
[25]; 100 nM
  cell viability: 105%
[25]; 1000 nM
  cell viability: 82.3%
[25]; 10000 nM
  cell viability: 0.124%
[26]; 1 nM
  cell viability: 104%
[26]; 10 nM
  cell viability: 94.3%
[26]; 100 nM
  cell viability: 102%
[26]; 1000 nM
  cell viability: 102%
[26]; 10000 nM
  cell viability: 7.73%
[27]; 1 nM
  cell viability: 100%
[27]; 10 nM
  cell viability: 105%
[27]; 100 nM
  cell viability: 102%
[27]; 1000 nM
  cell viability: 93.5%
[27]; 10000 nM
  cell viability: 4.3%
[28]; 1 nM
  cell viability: 120%
[28]; 10 nM
  cell viability: 94.1%
[28]; 100 nM
  cell viability: 92.7%
[28]; 1000 nM
  cell viability: 79.9%
[28]; 10000 nM
  cell viability: 1.52%
[29]; 1 nM
  cell viability: 94.6%
[29]; 10 nM
  cell viability: 103%
[29]; 100 nM
  cell viability: 101%
[29]; 1000 nM
  cell viability: 91.5%
[29]; 10000 nM
  cell viability: 35.1%
[30]; 1 nM
  cell viability: 100%
[30]; 10 nM
  cell viability: 97.6%
[30]; 100 nM
  cell viability: 94.2%
[30]; 1000 nM
  cell viability: 79.1%
[30]; 10000 nM
  cell viability: 0.398%
